Assay results taken from patent US10174037B2, “Dihydropyrazolopyrimidinone compounds as PDE2 inhibitors” (Merck Sharp & Dohme Corp., priority 2015, dated 2019).

Experiments:
Rhesus PDE2A3 = Rhesus PDE2A3 (Macaca mulatta, UniProt B3VTJ2); assay: PDE2 fluorescence polarization (IMAP FP) assay, rhesus PDE2A3; format: biochemical, rhesus macaque; conditions: Lab B, read-out: Rhesus PDE2 Ki (nM) Lab B
human PDE2A1 = human PDE2A1 (Homo sapiens (Human), UniProt O00408); assay: PDE selectivity IMAP FP assay, human PDE2A1; format: biochemical; conditions: Human PDE2; Lab B; read-out: Human PDE2 Ki (nM) Lab B
Sequence of human PDE2A1 (O00408 other isoform, or with tags, fused parts or gaps): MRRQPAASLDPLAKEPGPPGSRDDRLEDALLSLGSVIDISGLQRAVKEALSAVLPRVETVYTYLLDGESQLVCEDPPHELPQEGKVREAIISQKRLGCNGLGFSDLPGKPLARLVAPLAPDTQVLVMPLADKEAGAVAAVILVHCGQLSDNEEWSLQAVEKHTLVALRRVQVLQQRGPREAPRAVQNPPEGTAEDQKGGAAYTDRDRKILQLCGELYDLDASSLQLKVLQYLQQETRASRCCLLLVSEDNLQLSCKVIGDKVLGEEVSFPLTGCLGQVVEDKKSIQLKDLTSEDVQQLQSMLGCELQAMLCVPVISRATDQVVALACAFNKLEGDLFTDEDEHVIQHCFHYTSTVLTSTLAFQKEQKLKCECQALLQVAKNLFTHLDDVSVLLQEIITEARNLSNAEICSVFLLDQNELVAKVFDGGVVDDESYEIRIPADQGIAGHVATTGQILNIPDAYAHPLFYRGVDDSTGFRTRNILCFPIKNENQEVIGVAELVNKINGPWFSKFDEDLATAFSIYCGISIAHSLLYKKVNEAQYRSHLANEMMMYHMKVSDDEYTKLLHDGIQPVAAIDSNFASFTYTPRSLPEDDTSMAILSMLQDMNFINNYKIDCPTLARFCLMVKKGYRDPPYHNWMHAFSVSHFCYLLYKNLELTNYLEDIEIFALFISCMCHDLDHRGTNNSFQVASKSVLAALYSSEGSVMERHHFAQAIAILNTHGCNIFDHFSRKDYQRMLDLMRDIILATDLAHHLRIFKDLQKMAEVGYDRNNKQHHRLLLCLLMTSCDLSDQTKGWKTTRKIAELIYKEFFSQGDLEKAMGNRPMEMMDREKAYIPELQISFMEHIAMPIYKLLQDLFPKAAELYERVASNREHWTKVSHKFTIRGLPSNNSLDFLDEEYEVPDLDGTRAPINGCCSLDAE
Summary of the method: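 IMAP fluorescence polarization assay; PDE2 substrate 50 nM FAM-cAMP containing 1000 nM cGMP, enzyme diluted for 20% substrate conversion, in 10 mM Tris HCl pH 7.2, 10 mM MgCl2, 1 mM DTT. Reaction 60 min at room temperature, stopped with IMAP binding solution; polarization read after 1 h. Ki reported.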

Sequence of Rhesus PDE2A3 (B3VTJ2 1-941): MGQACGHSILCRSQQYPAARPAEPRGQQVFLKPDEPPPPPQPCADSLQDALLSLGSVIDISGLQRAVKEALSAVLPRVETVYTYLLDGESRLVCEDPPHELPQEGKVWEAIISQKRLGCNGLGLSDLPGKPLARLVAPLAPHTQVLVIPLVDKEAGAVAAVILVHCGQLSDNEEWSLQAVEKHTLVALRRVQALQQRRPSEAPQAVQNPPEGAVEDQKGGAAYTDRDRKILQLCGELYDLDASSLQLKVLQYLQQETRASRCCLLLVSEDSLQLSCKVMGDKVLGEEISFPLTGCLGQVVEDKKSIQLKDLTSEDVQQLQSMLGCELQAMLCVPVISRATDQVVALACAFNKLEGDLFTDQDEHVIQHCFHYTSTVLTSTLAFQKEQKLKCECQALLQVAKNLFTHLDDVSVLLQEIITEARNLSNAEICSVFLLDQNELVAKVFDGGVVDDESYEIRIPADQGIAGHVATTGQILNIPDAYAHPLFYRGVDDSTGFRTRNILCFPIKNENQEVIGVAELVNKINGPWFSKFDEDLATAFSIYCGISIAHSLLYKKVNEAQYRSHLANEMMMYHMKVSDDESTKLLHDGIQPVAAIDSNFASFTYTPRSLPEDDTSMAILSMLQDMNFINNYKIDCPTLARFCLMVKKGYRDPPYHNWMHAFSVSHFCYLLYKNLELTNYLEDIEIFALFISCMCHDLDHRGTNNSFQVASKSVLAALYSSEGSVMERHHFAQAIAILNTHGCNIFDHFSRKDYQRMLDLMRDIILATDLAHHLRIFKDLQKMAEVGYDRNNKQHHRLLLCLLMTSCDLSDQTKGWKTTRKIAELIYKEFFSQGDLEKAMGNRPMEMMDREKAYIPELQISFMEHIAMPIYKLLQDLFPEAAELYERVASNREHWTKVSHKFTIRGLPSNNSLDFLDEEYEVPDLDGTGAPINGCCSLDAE

In the case of `CN(C)c1nc2c(c(CF)nn2C(c2ccc(C(C)(F)F)cc2)C2CC2)c(=O)[nH]1` (single isomer, unassigned) [Example 212, (R)- or (S)-1-(Cyclopropyl(4-(1,1-difluoroethyl)phenyl)methyl)-6-(dimethylamino)-3-(fluoromethyl)-1H-pyrazolo[3,4-d]pyrimidin-4(5H)-one], the Ki (Rhesus PDE2A3) is reported as 0.91 nM and the Ki (human PDE2A1) is reported as 0.61 nM.

For `CN(C)c1nc2c(c(CF)nn2C(c2ccc(C(C)(F)F)cc2)C2CC2)c(=O)[nH]1` (single isomer, unassigned) [Example 213, (S)- or (R)-1-(Cyclopropyl(4-(1,1-difluoroethyl)phenyl)methyl)-6-(dimethylamino)-3-(fluoromethyl)-1H-pyrazolo[3,4-d]pyrimidin-4(5H)-one], the Ki (Rhesus PDE2A3) was 0.075 nM and the Ki (human PDE2A1) was 0.053 nM.

Compound `CCC(c1ccc(C(C)(F)F)cc1F)n1nc(CF)c2c(=O)[nH]c(N(C)C)nc21` (single isomer, unassigned) [Example 214, (R)- or (S)-1-(1-(4-(1,1-Difluoroethyl)-2-fluorophenyl)propyl)-6-(dimethylamino)-3-(fluoromethyl)-1H-pyrazolo[3,4-d]pyrimidin-4(5H)-one] has a Ki (Rhesus PDE2A3) of 0.05 nM and a Ki (human PDE2A1) of 0.045 nM.

`CCC(c1ccc(C(C)(F)F)c(F)c1)n1nc(CF)c2c(=O)[nH]c(N(C)C)nc21` (single isomer, unassigned) [Example 216, (R)- or (S)-1-(1-(4-(1,1-Difluoroethyl)-3-fluorophenyl)propyl)-6-(dimethylamino)-3-(fluoromethyl)-1H-pyrazolo[3,4-d]pyrimidin-4(5H)-one] showed a Ki (Rhesus PDE2A3) of 1.4 nM and a Ki (human PDE2A1) of 1.1 nM.

For `CCC(c1ccc(C(C)(F)F)c(F)c1)n1nc(CF)c2c(=O)[nH]c(N(C)C)nc21` (single isomer, unassigned) [Example 217, (S)- or (R)-1-(1-(4-(1,1-Difluoroethyl)-3-fluorophenyl)propyl)-6-(dimethylamino)-3-(fluoromethyl)-1H-pyrazolo[3,4-d]pyrimidin-4(5H)-one], the Ki (Rhesus PDE2A3) was 0.027 nM and the Ki (human PDE2A1) was 0.016 nM.

Compound `CC(C)C(c1ccc(C(C)(F)F)c(F)c1)n1nc(CF)c2c(=O)[nH]c(N(C)C)nc21` (single isomer, unassigned) [Example 218, (R)- or (S)-1-(1-(4-(1,1-Difluoroethyl)-3-fluorophenyl)-2-methylpropyl)-6-(dimethylamino)-3-(fluoromethyl)-1H-pyrazolo[3,4-d]pyrimidin-4(5H)-one] has a Ki (Rhesus PDE2A3) of 0.21 nM and a Ki (human PDE2A1) of 0.16 nM.

Work on `CC(C)C(c1ccc(C(C)(F)F)c(F)c1)n1nc(CF)c2c(=O)[nH]c(N(C)C)nc21` (single isomer, unassigned) [Example 219, (S)- or (R)-1-(1-(4-(1,1-Difluoroethyl)-3-fluorophenyl)-2-methylpropyl)-6-(dimethylamino)-3-(fluoromethyl)-1H-pyrazolo[3,4-d]pyrimidin-4(5H)-one] yielded a Ki (Rhesus PDE2A3) of 0.03 nM and a Ki (human PDE2A1) of 0.022 nM.

Work on `CC(C)C(c1ccc(C(F)(F)F)c(F)c1)n1nc(CF)c2c(=O)[nH]c(N(C)C)nc21` (single isomer, unassigned) [Example 221, (S)- or (R)-6-Dimethylamino)-1-(1-(3-fluoro-4-trifluoromethyl)phenyl)-2-methylpropyl)-3-(fluoromethyl)-1H-pyrazolo[3,4-d]pyrimidin-4(5H)-one] yielded a Ki (Rhesus PDE2A3) of 0.067 nM and a Ki (human PDE2A1) of 0.046 nM.

For `CCC(c1ccc(C(F)(F)F)c(F)c1)n1nc(CF)c2c(=O)[nH]c(N(C)C)nc21` (single isomer, unassigned) [Example 222, (R)- or (S)-6-(Dimethylamino)-1-(1-(3-fluoro-4-(trifluoromethyl)phenyl)propyl)-3-(fluoromethyl)-1H-pyrazolo[3,4-d]pyrimidin-4(5H)-one], the Ki (Rhesus PDE2A3) was 0.063 nM and the Ki (human PDE2A1) was 0.044 nM.

Work on `CC(c1ccc(C(F)(F)F)c(F)c1)n1nc(CC(F)(F)F)c2c(=O)[nH]c(O)nc21` (single isomer, unassigned) [Example 235, (S)- or (R)-1-(1-(3-Fluoro-4-(triduoromethyl)phenyl)ethyl)-6-hydroxy-3-(2,2,2-trifluoroethyl)-1H-pyrazolo[3,4-d]pyrimidin-4(5H)-one] yielded a Ki (Rhesus PDE2A3) of 1.5 nM and a Ki (human PDE2A1) of 1.4 nM.

Compound `CC(c1ccc(C(C)(C)C)cc1)n1nc(CC(F)(F)F)c2c(=O)[nH]c(O)nc21` (single isomer, unassigned) [Example 236, (R)- or (S)-1-(1-(4-tert-Butylphenyl)ethyl)-6-hydroxy-3-(2,2,2-trifluoroethyl)-1H-pyrazolo[3,4-d]pyrimidin-4(5H)-one] has a Ki (Rhesus PDE2A3) of 5 nM and a Ki (human PDE2A1) of 3.4 nM.

`O=c1[nH]c(O)nc2c1c(CC(F)(F)F)nn2C(c1ccc(C(F)(F)F)c(F)c1)C1CC1` (single isomer, unassigned) [Example 238, (R)- or (S)-1-(Cyclopropyl(3-fluoro-4-(trifluoromethyl)phenyl)methyl)-6-hydroxy-3-(2,2,2-trifluoroethyl)-1H-pyrazolo[3,4-d]pyrimidin-4(5H)-one] was tested, and the Ki (Rhesus PDE2A3) was 7.1 nM and the Ki (human PDE2A1) was 5.8 nM.

With `CC(C)C(c1ccc(C(F)(F)F)cc1)n1nc(CC(F)(F)F)c2c(=O)[nH]c(O)nc21` (single isomer, unassigned) [Example 240, (R)- or (S)-6-Hxdroxy-1-(2-methyl-1-(4-(trifluoromethyl)phenyl)propyl)-3-(2,2,2-trifluoroethyl)-1H-pyrazolo[3,4-d]pyrimidin-4(5H)-one] the Ki (Rhesus PDE2A3) was 11 nM and the Ki (human PDE2A1) was 8 nM.

Compound `CC1(C(c2ccc(C(F)(F)F)cc2)n2nc(CC(F)(F)F)c3c(=O)[nH]c(O)nc32)CC1` (single isomer, unassigned) [Example 244, (R)- or (S)-6-Hydroxy-1-((1-methylcyclopropyl)(4-(trifluoromethyl)phenyl)methyl)-3-(2,2,2-trifluoroethyl)-1H-pyrazolo[3,4-d]pyrimidin-4(5H)-one] has a Ki (Rhesus PDE2A3) of 21 nM and a Ki (human PDE2A1) of 21 nM.

`CC(C)(C)c1ccc(C(C2CC2)n2nc(CC(F)(F)F)c3c(=O)[nH]c(O)nc32)cc1` (single isomer, unassigned) [Example 250, (R)- or (S)-1-((4-tert-Butylphenyl)(cyclopropyl)methyl)-6-hydroxy-3-(2,2,2-trifluoroethyl)-1H-pyrazolo(3,4-d]pyrimidin-4(5H)-one] showed a Ki (Rhesus PDE2A3) of 26 nM and a Ki (human PDE2A1) of 27 nM.

Work on `O=c1[nH]c(O)nc2c1c(CC(F)(F)F)nn2C(c1ccc(OC(F)(F)F)c(F)c1)C1CC1` (single isomer, unassigned) [Example 252, (R)- or (S)-1-(Cyclopropyl(3-fluoro-4-(trifluoromethoxy)phenyl)methyl)-6-hydroxy-3-(2,2,2-trifluoroethyl)-1H-pyrazolo[3,4-d]pyrimidin-4(5H)-one] yielded a Ki (Rhesus PDE2A3) of 68 nM and a Ki (human PDE2A1) of 73 nM.

Compound `CC(c1ccc(C(F)(F)F)cc1)n1nc(C(F)(F)F)c2c(=O)[nH]c(O)nc21` (single isomer, unassigned) [Example 254, (R)- or (S)-6-Hydroxy-3-(trifluoromethyl)-1-(1-(4-(trifluoromethyl)phenyl)ethyl)-1H-pyrazolo[3,4-d]pyrimidin-4(5H)-one] has a Ki (Rhesus PDE2A3) of 102 nM and a Ki (human PDE2A1) of 121 nM.

Work on `CC(c1ccc(C(F)(F)F)cc1)n1nc(C(F)(F)F)c2c(=O)[nH]c(O)nc21` (single isomer, unassigned) [Example 255, (S)- or (R)-6-Hydroxy-3-(trifluoromethyl)-1-(1-(4-(trifluoromethyl)phenyl)ethyl)-1H-pyrazolo[3,4-d]pyrimidin-4(5H)-one] yielded a Ki (Rhesus PDE2A3) of 3.7 nM and a Ki (human PDE2A1) of 2.4 nM.
